Reference: patent US4558134A, “Certain phenoxy-pyridine-carbonitriles having antiviral activity” (The Dow Chemical Company, priority 1983, dated 1985)
Values after ≈ are worked out from the molar mass of the structure shown. Like-named read-outs stand apart in the source and are kept apart here.

Key:
[1] = tested on: Coxsackie A21 virus (Cox A21); test: Tissue culture testing, reduction of viral cytopathic effect, Cox A21; assay type: cell-based; conditions: HeLa cells, 48 and 72 hours, read-out: Lowest concentration of the compound necessary to cause a 50 percent reduction in cytopathic effect, CoxA21
[2] = tested on: rhinovirus type 64 (RV-64); test: Tissue culture testing, reduction of viral cytopathic effect, RV-64; assay type: cell-based; conditions: Enterovirus, read-out: Lowest concentration of the compound necessary to cause a 50 percent reduction in cytopathic effect, RV-64
[3] = tested on: rhinovirus type 39 (RV-39); test: Tissue culture testing, reduction of viral cytopathic effect, RV-39; assay type: cell-based; conditions: Enterovirus, read-out: Lowest concentration of the compound necessary to cause a 50 percent reduction in cytopathic effect, RV-39
in vitro = conditions: human, hela cells
[4] = tested on: rhinovirus type 1A (RV-1A); test: Tissue culture testing, reduction of viral cytopathic effect, RV-1A; assay type: cell-based; conditions: Enterovirus, read-out: Lowest concentration of the compound necessary to cause a 50 percent reduction in cytopathic effect, RV-1A
rhinovirus type 2 (RV-2) = test: Tissue culture testing, reduction of viral cytopathic effect, RV-2; assay type: cell-based; conditions: Enterovirus, read-out: Lowest concentration of the compound necessary to cause a 50 percent reduction in cytopathic effect, RV-2
Coxsackie A21 virus = test: Continuous Oral Feeding test in mice challenged IP with Coxsackie A21 virus; conditions: 0.06% by weight in diet; 10 days; >3.84 active (95% confidence level)
[5] = tested on: polio virus type 2 (Polio-2); test: organism not typed; assay type: cell-based; conditions: HeLa, read-out: Lowest concentration of the compound necessary to cause a 50 percent reduction in cytopathic effect, Polio-2
[6] = HeLa cells, RV-64, 48 and 72 hours
[7] = HeLa cells, RV-39, 48 and 72 hours
[8] = HeLa cells, RV-1A, 48 and 72 hours
[9] = HeLa cells, RV-2, 48 and 72 hours

| Structure (SMILES) | EC50 [1] | EC50 [2, 6] | EC50 [3, 7] | MCC (in vitro) | EC50 [4, 8] | EC50 (rhinovirus type 2 (RV-2); [9]) | Continuous Oral Feeding X^2 (chi-square, mortality) (Coxsackie A21 virus) | EC50 [5] | EC50 ([4]; HeLa) | EC50 ([3]; HeLa) | EC50 ([2]; HeLa) | EC50 (rhinovirus type 2 (RV-2); HeLa) |
| --- | --- | --- | --- | --- | --- | --- | --- | --- | --- | --- | --- | --- |
| CCSc1ccc(Oc2ccc(Cl)c(Cl)c2)nc1C#N [Example 20, 6-(3,4-Dichlorophenoxy)-3-ethylthio-2-pyridinecarbonitrile] | 0.03 µg/mL (≈ 0.0922 µM) | 12.5 µg/mL (≈ 38.4 µM) | 6.25 µg/mL (≈ 19.2 µM) | > 12.5 µg/mL | 3.13 µg/mL (≈ 9.62 µM) | 3.13 µg/mL (≈ 9.62 µM) | 6.5 | < 0.78 µg/mL |  |  |  |  |
| CCSc1ccc(Oc2ccc(Cl)c(Cl)c2)c(C#N)n1 [Example 21, 3-(3,4-Dichlorophenoxy)-6-ethylthio-2-pyridinecarbonitrile] | 0.6 µg/mL (≈ 1.84 µM) | 2.5 µg/mL (≈ 7.69 µM) |  | 2.5 µg/mL | 2.5 µg/mL (≈ 7.69 µM) | 0.6 µg/mL (≈ 1.84 µM) |  |  |  |  |  |  |
| CCCSc1ccc(Oc2ccc(Cl)c(Cl)c2)nc1C#N [Example 34, 6-(3,4-Dichlorophenoxy)-3-propylthio-2-pyridinecarbonitrile] | 0.08 µg/mL (≈ 0.236 µM) | > 12.5 µg/mL | 25 µg/mL (≈ 73.7 µM) | > 50 µg/mL |  | 3.13 µg/mL (≈ 9.23 µM) |  | 1.56 µg/mL (≈ 4.6 µM) | 1.56 µg/mL (≈ 4.6 µM) |  |  |  |
| C[S+]([O-])c1ccc(Oc2ccc(Cl)c(Cl)c2)nc1C(N)=O (stereo not drawn) [Example 30, 6-(3,4-Dichlorophenoxy)-3-methylsulfinyl-2-pyridinecarboxamide] | < 3.1 µg/mL |  |  | 25 µg/mL | 6.3 µg/mL (≈ 18.2 µM) | 6.3 µg/mL (≈ 18.2 µM) |  |  |  |  |  |  |
| CC(C)Sc1ccc(Oc2ccc(Cl)c(Cl)c2)c(C#N)n1 [Example 37, 3-(3,4-Dichlorophenoxy)-6-isopropylthio-2-pyridinecarbonitrile] | < 1.56 µg/mL | ≤ 1.56 µg/mL |  | ≥ 25 µg/mL | 3.13 µg/mL (≈ 9.23 µM) | < 1.56 µg/mL |  |  |  |  |  |  |
| CC[S+]([O-])c1ccc(Oc2ccc(Cl)c(Cl)c2)nc1C#N (stereo not drawn) [Example 31, 6-(3,4-Dichlorophenoxy)-3-ethylsulfinyl-2-pyridinecarbonitrile] | < 3.1 µg/mL |  |  | 50 µg/mL | 12.5 µg/mL (≈ 36.6 µM) | 12.5 µg/mL (≈ 36.6 µM) |  |  |  |  |  |  |
| CC(C)CSc1ccc(Oc2ccc(Cl)c(Cl)c2)c(C#N)n1 [Example 43, 3-(3,4-Dichlorophenoxy)-6-(isobutylthio)-2-pyridinecarbonitrile] | 1.56 µg/mL (≈ 4.42 µM) | 3.13 µg/mL (≈ 8.86 µM) |  | ≥ 25 µg/mL | 12.5 µg/mL (≈ 35.4 µM) | ≤ 1.56 µg/mL |  |  |  |  |  |  |
| CC(C)Sc1ccc(Oc2ccc(Cl)c(Cl)c2)nc1C#N [Example 36, 6-(3,4-Dichlorophenoxy)-3-isopropylthio-2-pyridinecarbonitrile] | < 1.56 µg/mL | 3.13 µg/mL (≈ 9.23 µM) | 1.56 µg/mL (≈ 4.6 µM) | 12.5 µg/mL | ≤ 1.56 µg/mL | ≤ 1.56 µg/mL |  |  |  |  |  |  |
| CCSc1cnc(Oc2ccc(Cl)c(Cl)c2)cc1C#N [Example 22, 2-(3,4-Dichlorophenoxy)-5-ethylthio-4-pyridinecarbonitrile] | 0.63 µg/mL (≈ 1.94 µM) |  |  | 50 µg/mL | > 50 µg/mL | 2.5 µg/mL (≈ 7.69 µM) |  |  |  |  |  |  |
| CCC(C)Sc1ccc(Oc2ccc(Cl)c(Cl)c2)c(C#N)n1 (stereo not drawn) [Example 41, 3-(3,4-Dichlorophenoxy)-6-(sec-butylthio)-2-pyridinecarbonitrile] | ≤ 1.56 µg/mL | < 1.56 µg/mL |  | > 25 µg/mL | 6.25 µg/mL (≈ 17.7 µM) | < 1.56 µg/mL |  |  |  |  |  |  |
| CCSc1cc(C#N)c(Oc2ccc(Cl)c(Cl)c2)cn1 [Example 23, 5-(3,4-Dichlorophenoxy)-2-ethylthio-4-pyridinecarbonitrile] | 2.5 µg/mL (≈ 7.69 µM) |  |  | 50 µg/mL | > 50 µg/mL | 2.5 µg/mL (≈ 7.69 µM) |  |  |  |  |  |  |
| C[S+]([O-])c1ccc(Oc2ccc(Cl)c(Cl)c2)nc1C#N (stereo not drawn) [Example 29, 6-(3,4-Dichlorophenoxy)-3-methylsulfinyl-2-pyridinecarbonitrile] | 12.5 µg/mL (≈ 38.2 µM) |  |  | > 50 µg/mL | 12.5 µg/mL (≈ 38.2 µM) | 12.5 µg/mL (≈ 38.2 µM) |  |  |  |  |  |  |
| CCCCSc1ccc(Oc2ccc(Cl)c(Cl)c2)c(C#N)n1 [Example 39, 3-(3,4-Dichlorophenoxy)-6-(n-butylthio)-2-pyridinecarbonitrile] | 1.56 µg/mL (≈ 4.42 µM) | 12.5 µg/mL (≈ 35.4 µM) |  | ≥ 25 µg/mL | > 25 µg/mL | 3.13 µg/mL (≈ 8.86 µM) |  |  |  |  |  |  |
| CS(=O)(=O)c1ccc(Oc2ccc(Cl)c(Cl)c2)nc1C#N [Example 32, 6-(3,4-Dichlorophenoxy)-3-methylsulfonyl-2-pyridinecarbonitrile] | > 50 µg/mL | 3.13 µg/mL (≈ 9.12 µM) |  | > 12.5 µg/mL | 6.25 µg/mL (≈ 18.2 µM) | 6.25 µg/mL (≈ 18.2 µM) | 10.1 | > 12.5 µg/mL |  | > 12.5 µg/mL |  |  |
| CCS(=O)(=O)c1ccc(Oc2ccc(Cl)c(Cl)c2)nc1C#N [Example 33, 6-(3,4-Dichlorophenoxy)-3-ethylsulfonyl-2-pyridinecarbonitrile] | < 3.1 µg/mL |  |  | 50 µg/mL |  | < 3.1 µg/mL |  |  |  |  |  |  |
| CSc1ccc(Oc2ccc(Cl)c(Cl)c2)nc1C#N [Example 25, 6-(3,4-Dichlorophenoxy)-3-methylthio-2-pyridinecarbonitrile] | < 3.1 µg/mL |  |  | > 50 µg/mL | 25 µg/mL (≈ 80.3 µM) |  |  |  |  |  |  |  |
| CCSc1ncc(Oc2ccc(Cl)c(Cl)c2)cc1C#N [Example 27, 5-(3,4-Dichlorophenoxy)-2-ethylthio-3-pyridinecarbonitrile] | < 3.13 µg/mL |  |  | > 50 µg/mL |  |  |  |  |  |  |  |  |
| CCSc1cnc(Oc2ccc(Cl)c(Cl)c2)c(C#N)c1 [Example 28, 2-(3,4-Dichlorophenoxy)-5-ethylthio-3-pyridinecarbonitrile] | 1.25 µg/mL (≈ 3.84 µM) | > 50 µg/mL |  | > 50 µg/mL | > 50 µg/mL | > 50 µg/mL |  |  |  |  |  |  |
| CCCSc1ccc(Oc2ccc(Cl)c(Cl)c2)c(C#N)n1 [Example 35, 3-(3,4-Dichlorophenoxy)-6-propylthio-2-pyridinecarbonitrile] | < 3.13 µg/mL |  |  | 50 µg/mL | 0.78 µg/mL (≈ 2.3 µM) |  |  | 12.5 µg/mL (≈ 36.8 µM) |  | 12.5 µg/mL (≈ 36.8 µM) | > 12.5 µg/mL | 12.5 µg/mL (≈ 36.8 µM) |
| CC(C)CSc1ccc(Oc2ccc(Cl)c(Cl)c2)nc1C#N [Example 42, 6-(3,4-Dichlorophenoxy)-3-(isobutylthio)-2-pyridinecarbonitrile] | < 1.56 µg/mL | 6.25 µg/mL (≈ 17.7 µM) |  | > 25 µg/mL | 12.5 µg/mL (≈ 35.4 µM) | 6.25 µg/mL (≈ 17.7 µM) |  |  |  |  |  |  |
| CCC(C)Sc1ccc(Oc2ccc(Cl)c(Cl)c2)nc1C#N (stereo not drawn) [Example 40, 6-(3,4-Dichlorophenoxy)-3-(sec-butylthio)-2-pyridinecarbonitrile] | 0.16 µg/mL (≈ 0.453 µM) | 1.56 µg/mL (≈ 4.42 µM) | 10 µg/mL (≈ 28.3 µM) | > 25 µg/mL | 1.56 µg/mL (≈ 4.42 µM) | 1.25 µg/mL (≈ 3.54 µM) |  |  |  |  |  |  |
| CCCCSc1ccc(Oc2ccc(Cl)c(Cl)c2)nc1C#N [Example 38, 6-(3,4-Dichlorophenoxy)-3-(n-butylthio)-2-pyridinecarbonitrile] | < 1.56 µg/mL | 12.5 µg/mL (≈ 35.4 µM) |  | > 25 µg/mL | 12.5 µg/mL (≈ 35.4 µM) | 6.25 µg/mL (≈ 17.7 µM) |  |  |  |  |  |  |
| CSc1cc(C#N)c(Oc2ccc(Cl)c(Cl)c2)cn1 [Example 24, 5-(3,4-Dichlorophenoxy)-2-methylthio-4-pyridinecarbonitrile] | 1.25 µg/mL (≈ 4.02 µM) | > 50 µg/mL |  | > 50 µg/mL | > 50 µg/mL | > 50 µg/mL |  |  |  |  |  |  |
| CCSc1ccc(Oc2ccc(C(=O)c3ccccc3)cc2)nc1C#N [Example 26, 6-(4-Benzoylphenoxy)-3-ethylthio-2-pyridinecarbonitrile] | < 3.1 µg/mL |  |  | 50 µg/mL | 25 µg/mL (≈ 69.4 µM) | < 3.1 µg/mL | 27.5 |  |  |  |  |  |
